Earlier results in patent US5688981A, “Ethylenediaminetriacetic acid and N-acyl ethylenediaminetriacetic acid silver chelating agents and surfactants” (Hampshire Chemical Corp., priority 1996, dated 1997).

Assays:
[1] = background

| SMILES | concentration with propensity towards protein precipitation (protein) | toxicity on oral administration [1] |
| --- | --- | --- |
| O=C([O-])CC(O)(CC(=O)[O-])C(=O)[O-].[Ag+].[Ag+].[Ag+] [silver citrate] | 10^-4 M |  |
| [Ag][I] [silver iodide] | 10^-4 M |  |
| CC(O)C(=O)[O-].[Ag+] (centres unmarked) [silver lactate] | 10^-4 M |  |
| O=[N+]([O-])[O-].[Ag+] [silver nitrate] |  | can cause severe gastroenteritis which may be fatal |
| [Ag+].[Ag+].[O-2] [silver oxide] | 10^-4 M |  |
